Earlier results on one molecule are cited in patent publication US12648912B2 (Mylan Laboratories Limited, priority 2020, dated 2026).

Experiment in data set [1]: not given
This is another data set of the same source.

For the molecule `Cc1cnc(NC(=O)C2=C(O)c3ccccc3S(=O)(=O)N2C)s1` [Meloxicam, 4-hydroxy-2-methyl-N-(5-methyl-2-thiazolyl)-2H-1,2-benzothiazine-3-carboxamide-1,1-dioxide], the “Tmax in fasted state relative to after breakfast” value (15 mg tablets, fasted state) is listed as “doubled”. The “Tmax (time to reach maximum concentration)” value (orally delivered, humans) was 4 to 6 h. In addition, the “second meloxicam concentration peak, time post-dose” value (post-dose, suggested gastrointestinal recirculation) is 12 to 14 h. Moreover, in data set [1] (methanol), the solubility in methanol entry was “very slightly soluble”. For the same molecule, in data set [1] (water), the solubility in water entry was “practically insoluble”.
